This is an account of results in patent US11001591B2, “TRAF 6 inhibitors” (HELMHOLTZ ZENTRUM MUENCHEN—DEUTSCHES FORSCHUNGSZENTRUM FÜR …, priority 2016, dated 2021).

One series addresses T1, MDM2 (Homo sapiens, UniProt Q00987).
T1 construct: purchased Boston Biochem one of K-102, K-260, K-200B, K-220, K-240, K-270
As to the kind of experiment: In vitro ubiquitination assay, MDM2. In kind it is biochemical. Conditions: K48 chain formation. Here is the method:
(§1) For analysis of clAP1, MDM2, TRIM63, RNF4, ITCH and E6AP mediated poly-ubiquitination, the respective ubiquitin ligase kit from Boston Biochem (K-102, K-260, K-200B, K-220, K-240 and K-270) was used. Here, reaction buffer, E1, E2 and E3 enzyme (and p53 substrate in case of MDM2) were mixed and pre-incubated with compound or DMSO for 5 minutes at room temperature before adding Mg^2+-ATP and mono-ubiquitin for reaction start. Ubiquitination was visualized by Western Blot analyses.

The test system of a further series is CYP450. Description: CYP450 inhibition. In kind it is in vitro ADME. The method, then:
(§2) All ADME (plasma stability, plasma protein binding, microsomal stability, Log D, Caco-2 assay, CYP450 inhibition and hERG predictor assay) as well as pharmacokinetic studies (Tmax, Cmax, AUC0-240 min, Mean Residence Time, Elimination half life, Elimination rate constant, Volume of Distribution and Clearance) of C25-140 (compound 3) were conducted by Bienta Enamine Biology Services of Bienta/Enamine Ltd.

A further series has as its target T2, E6AP (Homo sapiens, UniProt Q05086).
T2 construct: purchased Boston Biochem one of K-102, K-260, K-200B, K-220, K-240, K-270
As to the kind of experiment: In vitro ubiquitination assay, E6AP. It is filed as biochemical. The conditions noted are these: HECT E3 ligase. The method, then:
as §1

A further series addresses T3, hERG (Homo sapiens, UniProt Q12809).
T3 construct: Bienta/Enamine Ltd. (contract lab)
As to the kind of experiment: hERG predictor assay. It is filed as in vitro ADME. The method, then: as §2

Series [1] concerns Diet-Induced-Obesity (DIO) mice. Description: Diet-Induced-Obesity (DIO) mouse study. Conditions: 7.4 mg/kg IP once daily. It is filed as in vivo. The method, then: (§3) For MEF cells, 1.2×10^5 cells per sample were seeded, treated with compound for 6 hours and stimulated with either IL-1β or TNFα for 60 minutes. Jurkat T-cells and primary mouse CD4^+ T-cells were seeded at 2×10^5 cells per sample, also treated with compound for 6 hours and stimulated with PMA/lonomycin for 3 hours. RNA was isolated according to the manufacturer's protocol of the Qiagen RNeasy Kit (MEF cells) or the STRATEC INVITRAP® SPIN UNIVERSAL RNA MINI KIT (Jurkat T-cells). The isolation of mRNA from […] white adipose tissue from DIO mice was performed using TRIzol® Reagent according to manufacturer's instruction. To clear the isolated RNA from genomic DNA, samples (up to 5 μg RNA) were treated with RQ1 RNase-Free DNaseI (Promega) as described in the technical manual. For the reverse transcription of RNA into cDNA, the DNaseI digested RNA samples were processed using the SuperScript III First Strand cDNA Synthesis System (Invitrogen/ThermoFisher Scientific) following the manufacturer's protocol. Thereby, random hexamers provided with the kit were used for reverse transcription. cDNA samples were stored at −20° C. For quantification of cDNA in the samples, the LightCylcer480 (Roche) and the KAPA SYBR FAST qPCR Kit were used. For relative quantification, the ΔΔCp method first described by Pfaffl (Pfaffl, M. W., A new mathematical model for relative quantification in real-time RT-PCR. Nucleic Acids Res, 2001. 29(9): p. e45) was applied. The following primer were used for qRT-PCR:
Mice were fed a high-fat-diet until they reached a body weight of at least 40 g and developed […]. These mice were separated in control group and a group for C25-140 (compound 3) injection. Mice were treated every day with 14 μmol/kg (=7.4 mg/kg) C25-140 intraperitoneally for a period of 20 days. Thereby, C25-140 was dissolved in 2.9% DMSO, 1.5% Tween-80 and 1×PBS. Every day before injection, the body weight and food intake were measured. […]

Series [2] has as its system TRAF6 auto-ubiquitination. As to the kind of experiment: TRAF6 auto-ubiquitination in Jurkat T-cells. In kind it is cell-based, human. The conditions noted are these: PMA/Ionomycin.
A further series deals with BJAB (GCB DLBCL). As to the kind of experiment: Cell viability in DLBCL, BJAB. The conditions noted are these: 30 μM added at day 0, 4 and 8; 9 days. It is filed as cell-based. The method, then:
To determine the effects of C25-140 on MYD88-dependent ABC-DLBCL, we chose the HBL1 (ABC-DLBCL-MYD88 L265P), U2932 (ABC DLBCL-MYD88 wt) and BJAB (GCB DLBCL) cell lines. 1×10^6 cells of each cell line was seeded in 5 ml and treated with 30 μM compound C25-140 (compound 3) or DMSO. The entire experiment was carried out for 9 days. Every day 500 μl were taken and viable cell number was acquired using the ViCEII cell counter (Beckmann Coulter). At days 4 and 8 of the experiment the volume was again adjusted to 5 ml and samples were supplemented with 30 μM compound C25-140 or DMSO. This process was necessary to ensure linear proliferation of DMSO treated cells. All curves of C25-140 treated samples were referred to the corresponding DMSO treated controls.

The next series concerns IL-2 and TNFα. Description: mRNA expression of TCR target genes in Jurkat T-cells. It is filed as cell-based, human. Conditions: PMA/Ionomycin. Here is the method:
as §3, with “Thereby, random hexamers provided with the kit were used for reverse transcription. cDNA samples were stored at −20° C.” left out, “applied.” for “applied. The following primer were used for qRT-PCR:”

T3 sequence (Q12809 whole entry): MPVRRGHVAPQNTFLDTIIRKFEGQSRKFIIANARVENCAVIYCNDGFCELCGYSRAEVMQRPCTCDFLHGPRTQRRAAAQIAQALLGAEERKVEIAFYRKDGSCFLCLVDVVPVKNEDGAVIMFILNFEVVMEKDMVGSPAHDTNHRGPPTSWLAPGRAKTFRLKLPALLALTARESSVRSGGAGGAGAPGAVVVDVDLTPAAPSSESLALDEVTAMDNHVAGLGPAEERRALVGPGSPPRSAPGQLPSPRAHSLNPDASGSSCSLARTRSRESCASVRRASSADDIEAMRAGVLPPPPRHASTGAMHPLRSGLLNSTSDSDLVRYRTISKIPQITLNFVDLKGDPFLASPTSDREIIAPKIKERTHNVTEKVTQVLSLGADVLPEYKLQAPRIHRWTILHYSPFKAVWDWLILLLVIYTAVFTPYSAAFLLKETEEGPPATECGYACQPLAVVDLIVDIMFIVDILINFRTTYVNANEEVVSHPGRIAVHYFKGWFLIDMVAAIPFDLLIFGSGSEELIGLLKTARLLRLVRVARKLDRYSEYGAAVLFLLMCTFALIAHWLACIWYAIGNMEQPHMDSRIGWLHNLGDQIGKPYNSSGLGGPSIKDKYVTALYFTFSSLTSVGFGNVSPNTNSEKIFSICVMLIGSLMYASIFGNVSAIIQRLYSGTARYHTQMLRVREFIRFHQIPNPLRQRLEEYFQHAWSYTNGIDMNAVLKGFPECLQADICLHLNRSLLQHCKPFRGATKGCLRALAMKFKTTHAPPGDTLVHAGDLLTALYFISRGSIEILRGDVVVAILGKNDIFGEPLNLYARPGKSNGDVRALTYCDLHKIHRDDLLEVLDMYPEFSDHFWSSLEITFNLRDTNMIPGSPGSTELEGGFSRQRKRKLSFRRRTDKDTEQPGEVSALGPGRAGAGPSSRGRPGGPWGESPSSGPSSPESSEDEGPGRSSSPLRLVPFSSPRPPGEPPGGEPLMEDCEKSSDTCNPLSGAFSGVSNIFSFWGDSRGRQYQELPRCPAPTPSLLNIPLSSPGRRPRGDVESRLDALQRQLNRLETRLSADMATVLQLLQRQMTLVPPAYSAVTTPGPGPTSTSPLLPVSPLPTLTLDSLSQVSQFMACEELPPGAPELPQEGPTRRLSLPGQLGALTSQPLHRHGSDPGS
T2 sequence (Q05086 whole entry): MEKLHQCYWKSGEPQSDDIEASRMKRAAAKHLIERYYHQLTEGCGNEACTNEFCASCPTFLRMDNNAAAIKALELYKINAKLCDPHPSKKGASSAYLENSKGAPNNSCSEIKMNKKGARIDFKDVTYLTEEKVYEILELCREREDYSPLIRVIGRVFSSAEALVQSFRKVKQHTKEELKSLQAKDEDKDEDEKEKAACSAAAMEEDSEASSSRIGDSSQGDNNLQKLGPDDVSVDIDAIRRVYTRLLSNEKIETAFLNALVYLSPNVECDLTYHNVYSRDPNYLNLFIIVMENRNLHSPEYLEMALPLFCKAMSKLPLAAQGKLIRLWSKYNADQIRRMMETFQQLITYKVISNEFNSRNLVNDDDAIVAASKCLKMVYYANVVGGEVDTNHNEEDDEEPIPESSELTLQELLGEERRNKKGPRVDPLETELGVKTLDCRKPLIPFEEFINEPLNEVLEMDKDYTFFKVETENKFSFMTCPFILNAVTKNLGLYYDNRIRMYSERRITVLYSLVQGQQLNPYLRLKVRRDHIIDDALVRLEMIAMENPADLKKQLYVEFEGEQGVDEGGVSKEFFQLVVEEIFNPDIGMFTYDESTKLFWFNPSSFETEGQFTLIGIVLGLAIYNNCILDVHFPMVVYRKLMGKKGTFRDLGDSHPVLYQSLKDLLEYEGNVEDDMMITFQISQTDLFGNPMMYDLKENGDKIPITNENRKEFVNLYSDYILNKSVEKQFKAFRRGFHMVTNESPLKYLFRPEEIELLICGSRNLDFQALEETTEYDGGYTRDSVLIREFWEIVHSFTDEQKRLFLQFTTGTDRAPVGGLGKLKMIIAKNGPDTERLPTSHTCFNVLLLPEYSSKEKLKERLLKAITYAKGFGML
T1 sequence (Q00987 whole entry): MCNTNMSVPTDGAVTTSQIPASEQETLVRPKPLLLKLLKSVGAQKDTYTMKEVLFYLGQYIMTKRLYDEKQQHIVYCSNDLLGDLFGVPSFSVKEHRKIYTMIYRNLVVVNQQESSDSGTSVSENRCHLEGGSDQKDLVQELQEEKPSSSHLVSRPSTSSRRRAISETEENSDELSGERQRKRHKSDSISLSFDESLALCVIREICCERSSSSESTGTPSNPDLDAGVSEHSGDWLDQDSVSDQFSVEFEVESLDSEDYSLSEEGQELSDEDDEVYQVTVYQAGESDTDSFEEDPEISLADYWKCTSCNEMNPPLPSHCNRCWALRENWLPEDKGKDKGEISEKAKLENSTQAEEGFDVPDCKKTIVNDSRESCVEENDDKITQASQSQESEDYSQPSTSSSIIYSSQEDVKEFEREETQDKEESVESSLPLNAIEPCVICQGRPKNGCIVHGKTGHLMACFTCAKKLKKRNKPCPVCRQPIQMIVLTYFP

Regarding `Cc1nn(-c2ccc3nnc(C)n3n2)c(C)c1CCC(=O)N1CCC(Cc2ccccc2)CC1` [Compound 3, 1-(4-benzylpiperidin-1-yl)-3-(3,5-dimethyl-1-(3-methyl-[1,2,4]triazolo[4,3-b]pyridazin-6-yl)-1H-pyrazol-4-yl)propan-1-one], the “p53 ubiquitination by MDM2” value on MDM2 is “not affected”. Further, the CYP450 inhibition entry with CYP450 is recorded as “some inhibitory potential on selected CYPs”. The “S5A ubiquitination by E6AP” value at E6AP is reported as “not affected”. Further, the hERG inhibition result at hERG was “does not very much inhibit hERG”. The “body weight gain under high-fat-diet” value in series [1] (20 days) was “hardly increased body weight”. Also, the food intake result in series [1] (20 days, vs vehicle) is listed as “did not differ”. For the same compound, the “IL-1β and VCAM mRNA in adipose tissue” value in series [1] (day 20) is given as “significantly reduced”. Besides, the “TRAF6 auto-ubiquitination upon TCR stimulation” value in series [2] is “dose-dependently reduced”. Further, the “viability (cell count)” value in the series on BJAB (GCB DLBCL) was “did not show any difference”. Further, the “mRNA levels of IL-2 and TNFα” value in the series with IL-2 and TNFα was “dose-dependently decreased”.
